Measured values from paper PMC8812735, “Discovery of triterpenoids as potent dual inhibitors of pancreatic lipase and human carboxylesterase 1” (Journal of Enzyme Inhibition and Medicinal Chemistry, 2022).

Assays:
hCES2A = target: T1, hCES2A (Homo sapiens, UniProt O00748); experiment: Inhibition of hCES2A-mediated FD hydrolysis; type: biochemical; details: FD substrate, mean ± SD (n = 3); read-out: IC50 (µM) hCES2A
T1 sequence (O00748 27-559): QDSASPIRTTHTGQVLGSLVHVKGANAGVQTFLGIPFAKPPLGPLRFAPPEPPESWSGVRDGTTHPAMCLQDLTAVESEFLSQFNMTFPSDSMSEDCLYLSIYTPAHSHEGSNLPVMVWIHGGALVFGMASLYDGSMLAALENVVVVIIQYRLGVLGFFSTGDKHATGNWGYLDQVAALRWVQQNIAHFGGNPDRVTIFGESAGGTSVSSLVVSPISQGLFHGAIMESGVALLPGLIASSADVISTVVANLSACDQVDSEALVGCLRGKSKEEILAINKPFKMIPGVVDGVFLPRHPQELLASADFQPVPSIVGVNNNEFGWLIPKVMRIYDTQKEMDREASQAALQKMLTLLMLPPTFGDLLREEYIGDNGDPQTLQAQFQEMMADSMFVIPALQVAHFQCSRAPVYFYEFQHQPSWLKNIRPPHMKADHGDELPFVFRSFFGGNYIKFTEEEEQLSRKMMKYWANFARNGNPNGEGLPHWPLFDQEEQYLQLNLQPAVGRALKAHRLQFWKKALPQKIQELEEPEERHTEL
Source text: […] (FD) was used as the hCES2A specific probe substrate to assay the inhibitory effect of natural triterpenoids on hCES2A. The entire detailed operation process refers to the previously reported method, and finally the FD mixture was put into the multi-mode microplate reader for analysis and detection.

3T3-L1 cells = experiment: Cytotoxicity assay (CCK-8) in 3T3-L1 cells; type: cell-based; details: CCK-8, 48 h, 0–100 µM
Procedure: The effect of compounds 39 and 41 on cell viability of the 3T3-L1cells was measured using Cell Counting Kit-8 (Dalian Meilun Biotechnology Co., Ltd., Dalian, China). Briefly, 3T3-L1 cells (5 × 10^4/mL, 100 µL) were seeded in the 96-well plate, After 24 h incubation, then the cells were treated with different concentrations of compounds 39 and 41 (0–100 µM) for another 48 h. Then, CCK-8 (10%, v/v, 100 µL) was added to each well and incubated at 37 °C for additional 2 h. The absorbance was determined by microplate reader at 450 nm. The percentage of cell viability was calculated towards control. Each condition included replicate wells with at least four independent repeats.

[1] = target: T2, Butyrylcholinesterase (BuChE) (Homo sapiens, UniProt P06276); experiment: Inhibition of BuChE-mediated BTCH hydrolysis; type: biochemical
T2 construct: from tissue; host or cells: human serum
T2 sequence (P06276 29-602): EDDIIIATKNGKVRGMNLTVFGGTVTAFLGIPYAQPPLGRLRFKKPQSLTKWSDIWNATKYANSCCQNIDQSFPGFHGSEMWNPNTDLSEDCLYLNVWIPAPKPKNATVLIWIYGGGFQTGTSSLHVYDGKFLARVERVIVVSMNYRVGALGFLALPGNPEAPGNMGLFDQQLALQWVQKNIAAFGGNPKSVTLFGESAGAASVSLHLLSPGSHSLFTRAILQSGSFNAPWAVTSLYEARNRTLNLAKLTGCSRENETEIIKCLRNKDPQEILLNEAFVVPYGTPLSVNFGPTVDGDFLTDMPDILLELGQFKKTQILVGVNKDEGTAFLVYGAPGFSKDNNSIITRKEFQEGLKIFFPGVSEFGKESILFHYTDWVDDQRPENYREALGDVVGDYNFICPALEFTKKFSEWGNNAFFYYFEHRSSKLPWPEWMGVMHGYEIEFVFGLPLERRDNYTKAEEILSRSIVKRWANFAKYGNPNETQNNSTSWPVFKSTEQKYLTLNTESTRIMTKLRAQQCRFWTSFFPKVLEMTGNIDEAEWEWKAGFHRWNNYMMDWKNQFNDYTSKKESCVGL
Procedure: To assay the inhibitory effects of triterpenoids on Butyrylcholinesterase (BuChE), butyrylthiocholine (BTCH) was used as a substrate for BuChE, The total volume of the system was 100 µL. Including 2 µL DMSO/inhibitor, 2 µL human serum, 84 µL buffered PBS (pH 7.4, 0.1 M), 10 µL substrate iodised butyrylthiocholine (0.3 mM, final concentration) and 2 µL developer 5–5′-dithiobis(2-nitrobenzoic acid) (DTNB) (1 mM, final concentration). The assay protocol of […] was depicted previously. All measurements were performed in triplicates.

[2] = target: dipeptidyl peptidase-IV (DPP-IV) (Homo sapiens, UniProt P27487); experiment: Inhibition of DPP-IV-mediated GP-BAN hydrolysis; type: biochemical; details: substrate: GP-BAN
Sequence of dipeptidyl peptidase-IV (DPP-IV) (P27487 whole entry): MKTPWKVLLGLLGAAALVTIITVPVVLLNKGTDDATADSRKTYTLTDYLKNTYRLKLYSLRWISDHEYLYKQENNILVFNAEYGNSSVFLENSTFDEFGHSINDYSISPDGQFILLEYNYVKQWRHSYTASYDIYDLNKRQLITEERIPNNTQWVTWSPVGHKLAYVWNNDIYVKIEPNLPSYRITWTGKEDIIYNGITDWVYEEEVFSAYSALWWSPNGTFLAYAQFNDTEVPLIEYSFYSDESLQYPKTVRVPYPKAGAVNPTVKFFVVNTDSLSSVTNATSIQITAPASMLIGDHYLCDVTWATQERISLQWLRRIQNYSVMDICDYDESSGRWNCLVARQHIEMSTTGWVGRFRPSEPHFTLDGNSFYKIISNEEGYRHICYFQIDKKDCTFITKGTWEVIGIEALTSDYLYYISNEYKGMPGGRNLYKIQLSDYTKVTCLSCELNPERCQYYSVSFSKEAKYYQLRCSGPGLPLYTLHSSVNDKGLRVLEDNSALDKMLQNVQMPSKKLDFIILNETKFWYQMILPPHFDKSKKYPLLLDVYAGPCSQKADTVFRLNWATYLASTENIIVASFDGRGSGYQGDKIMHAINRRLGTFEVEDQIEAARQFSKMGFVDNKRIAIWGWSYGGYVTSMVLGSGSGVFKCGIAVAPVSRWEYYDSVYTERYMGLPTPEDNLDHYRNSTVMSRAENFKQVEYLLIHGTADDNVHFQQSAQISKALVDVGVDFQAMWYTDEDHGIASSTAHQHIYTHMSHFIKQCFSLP
Procedure: The details for DPP-IV inhibition has been reported previously[49]^,[50]. The fluorescent signal of the hydrolytic product (BAN) was measured by a fluorescence microplate reader at an excitation wavelength of 430 nm, an emission wavelength of 535 nm (gain = 500).

Row | Structure (SMILES) | IC50 (hCES2A) | concentration below which almost non-toxic to 3T3-L1 (cell viability) (3T3-L1 cells) | IC50 [1] | IC50 [2]
1 | CC(=O)OC1CCC2(C)C(CCC3(C)C2CC=C2C4C(C)C(C)CCC4(C(=O)O)CCC23C)C1(C)C (centres unmarked) [Compound 41] | 5.02 ± 0.88 µM | < 10 µM | > 100 µM | > 100 µM
2 | CC1(C)CCC2(C(=O)O)CCC3(C)C(=CCC4C5(C)C=C(O)C(=O)C(C)(C)C5CCC43C)C2C1 (centres unmarked) [Compound 39] | 6.02 ± 0.75 µM | below 20 µM | > 100 µM | > 100 µM
